# According to US10448639B2, “Fungicidal pyrazoles” (FMC CORPORATION, priority 2009, dated 2019):
# Marks after values point to notes of the source that are not given here.
# How the values were obtained:
# [1] = tested on: Puccinia recondita f. sp. tritici; test: Test I: wheat leaf rust, preventive spray on wheat seedlings, visual disease rating; settings: for pest or weed control at 200 µg/mL: 192 h, read-out: Test I rating (% disease control)
# Text: (§1) General protocol for preparing test suspensions for Tests A-J: the test compounds were first dissolved in acetone in an amount equal to 3% of the final volume and then suspended at the desired concentration (in ppm) in acetone and purified water (50/50 mix by volume) containing 250 ppm of the surfactant Trem® 014 (polyhydric alcohol esters). The resulting test suspensions were then used in Tests A-J. Spraying a 200 ppm test suspension to the point of run-off on the test plants was the equivalent of a rate of 500 g/ha. Unless otherwise indicated, the rating values indicate a 200 ppm test suspension was used. (An asterisk “*” next to the rating value indicates a 40 ppm test suspension was used.)
# The test suspension was sprayed to the point of run-off on wheat seedlings. The following day the seedlings were inoculated with a spore suspension of Puccinia recondita f. sp. tritici (the causal agent of wheat leaf rust) and incubated in a saturated atmosphere at 20° C. for 24 h, and then moved to a growth chamber at 20° C. for 7 days, after which time visual disease ratings were made
# A dash (-) indicates no test results.
# Botrytis cinerea = test: Test B: tomato Botrytis, preventive spray on tomato seedlings, visual disease rating; settings: for pest or weed control at 200 µg/mL: Botrytis cinerea, in Solanum lycopersicum, 120 h, read-out: Test B rating (% disease control)
# Septoria tritici = test: Test G: wheat leaf blotch, preventive spray on wheat seedlings, visual disease rating; settings: for pest or weed control at 200 µg/mL: Zymoseptoria tritici, in Triticum aestivum, 504 h, read-out: Test G rating (% disease control)
# Alternaria solani = test: Test C: tomato early blight, preventive spray on tomato seedlings, visual disease rating; settings: for pest or weed control at 200 µg/mL: Alternaria solani, in Solanum lycopersicum, 168 h, read-out: Test C rating (% disease control)
# [2] = tested on: Erysiphe graminis f sp. tritici; test: Test J: wheat powdery mildew, preventive spray on wheat seedlings, visual disease rating; settings: for pest or weed control at 200 µg/mL: Blumeria graminis, in Triticum aestivum, 192 h, read-out: Test J rating (% disease control)
# Septoria nodorum = test: Test F: Septoria glume blotch, preventive spray on wheat seedlings, visual disease rating; settings: for pest or weed control at 200 µg/mL: Parastagonospora nodorum, in Triticum aestivum, 192 h, read-out: Test F rating (% disease control)
# Text: as §1
# The test suspension was sprayed to the point of run-off on wheat seedlings. The following day the seedlings were inoculated with a spore suspension of Septoria nodorum (the causal agent of Septoria glume blotch) and incubated in a saturated atmosphere at 24° C. for 48 h, and then moved to a growth chamber at 20° C. for 6 days, after which time visual disease ratings were made.
# [3] = tested on: Puccinia recondita f. sp. tritici; test: Test H: wheat leaf rust, curative spray on inoculated wheat seedlings, visual disease rating; settings: for pest or weed control at 200 µg/mL: 144 h, read-out: Test H rating (% disease control)
# [4] = wheat leaf rust, preventive, 100 = 100% disease control, 0 = no control relative to controls
# [5] = tomato Botrytis, 100 = 100% disease control, 0 = no control relative to controls
# [6] = wheat leaf blotch, 100 = 100% disease control, 0 = no control relative to controls
# [7] = tomato early blight, 100 = 100% disease control, 0 = no control relative to controls
# [8] = wheat powdery mildew, 100 = 100% disease control, 0 = no control relative to controls
# [9] = Septoria glume blotch, 100 = 100% disease control, 0 = no control relative to controls
# [10] = wheat leaf rust, curative, 100 = 100% disease control, 0 = no control relative to controls
# [11] = wheat leaf rust, preventive spray, 100 = 100% disease control, 0 = no control
# [12] = tomato Botrytis, preventive spray, 100 = 100% disease control, 0 = no control
# [13] = wheat leaf blotch, preventive spray, 100 = 100% disease control, 0 = no control
# [14] = tomato early blight, preventive spray, 100 = 100% disease control, 0 = no control
# [15] = wheat powdery mildew, preventive spray, 100 = 100% disease control, 0 = no control
# [16] = Septoria glume blotch on wheat, preventive spray, 100 = 100% disease control, 0 = no control
# [17] = wheat leaf rust, curative spray, 100 = 100% disease control, 0 = no control
Structure (SMILES),"Test I rating (% disease control) [1, 4] [%]",Test B rating (% disease control) (Botrytis cinerea; [5]) [%],Test G rating (% disease control) (Septoria tritici; [6]) [%],Test C rating (% disease control) (Alternaria solani; [7]) [%],"Test J rating (% disease control) [2, 8] [%]",Test F rating (% disease control) (Septoria nodorum; [9]) [%],"Test H rating (% disease control) [3, 10] [%]",other results
COc1cc(Oc2c(-c3c(F)cc(F)cc3F)c(C)nn2C)ccc1Br [compound 166],68,0,97,0,96,0,0,–
Cc1nn(C)c(Oc2cc(F)cc(F)c2F)c1-c1c(F)cc(F)cc1F [compound 167],0,75,0,0,0,0,0,–
CCOc1cc(F)c(-c2c(C)nn(C)c2Nc2ccc(F)cc2F)c(F)c1 [compound 141],–,–,–,–,–,–,–,"Test I rating (% disease control) [1, 11]: 99%; Test B rating (% disease control) (Botrytis cinerea; [12]): 99%; Test G rating (% disease control) (Septoria tritici; [13]): 100%; Test C rating (% disease control) (Alternaria solani; [14]): 99%; Test J rating (% disease control) [2, 15]: 100%; Test F rating (% disease control) (Septoria nodorum; [16]): 98%; Test H rating (% disease control) [3, 17]: 0%"
"Cc1nn(C)c(Oc2c(F)cc(C#N)cc2F)c1-c1ccc(F)cc1Cl [Compound 45, 4-[[4-(2-chloro-4-fluorophenyl)-1,3-dimethyl-1H-pyrazol-5-yl]oxy]-3,5-difluorobenzonitrile]",–,–,–,–,–,–,–,pest or weed control at 200 µg/mL [1]: 100%; pest or weed control at 200 µg/mL (Botrytis cinerea): 100%; pest or weed control at 200 µg/mL (Septoria tritici): 100%; pest or weed control at 200 µg/mL (Alternaria solani): 100%; pest or weed control at 200 µg/mL [2]: 100%; pest or weed control at 200 µg/mL (Septoria nodorum): 100%; pest or weed control at 200 µg/mL [3]: 7%
Cc1nn(C)c(Oc2c(F)cc(C#N)cc2F)c1-c1ccccc1C(F)(F)F [compound 306],–,–,–,–,–,–,–,"Test I disease control rating ([1]; wheat leaf rust, sprayed the day before inoculation, 100 = 100% disease control, 0 = no disease control relative to controls): 28%; Test B disease control rating (Botrytis cinerea; tomato Botrytis, 100 = 100% disease control, 0 = no disease control relative to controls): 7%; Test G disease control rating (Septoria tritici; wheat leaf blotch, sprayed the day before inoculation, 100 = 100% disease control, 0 = no disease control relative to controls): 93%; Test C disease control rating (Alternaria solani; tomato early blight, 100 = 100% disease control, 0 = no disease control relative to controls): 0%; Test J disease control rating ([2]; wheat powdery mildew, sprayed the day before inoculation, 100 = 100% disease control, 0 = no disease control relative to controls): 64%; Test F disease control rating (Septoria nodorum; Septoria glume blotch on wheat, 100 = 100% disease control, 0 = no disease control relative to controls): 0%; Test H disease control rating ([3]; wheat leaf rust, sprayed after inoculation, 100 = 100% disease control, 0 = no disease control relative to controls): 0%"
Cc1nn(C)c(Nc2c(F)ccc(F)c2F)c1-c1ccc(F)cc1Cl [compound 171],99,100,97,97,100,0,68,–
"COc1cc(F)c(-c2c(C)nn(C)c2Nc2ccc(Cl)cc2)c(F)c1 [Compound 22, N-(4-chlorophenyl)-4-(2,6-difluoro-4-methoxyphenyl)-1,3-dimethyl-1H-pyrazol-5-amine]",–,–,–,–,–,–,–,pest or weed control at 200 µg/mL [1]: 94%; pest or weed control at 200 µg/mL (Botrytis cinerea): 90%; pest or weed control at 200 µg/mL (Septoria tritici): 94%; pest or weed control at 200 µg/mL (Alternaria solani): 85%; pest or weed control at 200 µg/mL [2]: 100%; pest or weed control at 200 µg/mL (Septoria nodorum): 90%; pest or weed control at 200 µg/mL [3]: 9%
Cc1nn(C)c(Nc2ccc(C#N)cc2F)c1-c1c(F)cccc1F [compound 196],98,99,100,94,98,73,9,–
Cc1nn(C)c(Nc2ncc(Cl)cc2Cl)c1-c1c(F)cc(F)cc1F [compound 101],–,–,–,–,–,–,–,"Test I rating (% disease control) [1, 11]: 99%; Test B rating (% disease control) (Botrytis cinerea; [12]): 100%; Test G rating (% disease control) (Septoria tritici; [13]): 100%; Test C rating (% disease control) (Alternaria solani; [14]): 99%; Test J rating (% disease control) [2, 15]: 100%; Test F rating (% disease control) (Septoria nodorum; [16]): 100%; Test H rating (% disease control) [3, 17]: 99%"
COc1cc(F)c(-c2c(C)nn(C)c2Oc2ccc(C)c(C)c2)c(F)c1 [compound 210],94,0,100,0,99,0,99,–
COc1ccc(Nc2c(-c3c(F)cccc3F)c(C)nn2C)c(F)c1 [compound 180],68,100,98,99,100,0,0,–
COc1ccc(F)c(Nc2c(-c3c(F)cccc3F)c(C)nn2C)c1 [compound 216],26,96,76,0,99,0,0,–
Cc1nn(C)c(Nc2ncc(F)cc2F)c1-c1c(F)cccc1C(F)(F)F [compound 264],99,100,92,98,98,0,0,–
Cc1nn(C)c(Nc2ncccc2Cl)c1-c1c(F)cc(F)cc1F [compound 241],100,99,100,99,100,0,97,–
Cc1nn(C)c(Nc2ccc(F)cc2Cl)c1-c1c(F)cccc1C(F)(F)F [compound 253],0,99,0,0,76,0,0,–
Cc1nn(C)c(Oc2c(F)cc(C#N)cc2F)c1-c1cccc(F)c1 [compound 43],–,–,–,–,–,–,–,"Test I rating (% disease control) [1, 11]: 82%; Test B rating (% disease control) (Botrytis cinerea; [12]): 76%; Test G rating (% disease control) (Septoria tritici; [13]): 97%; Test C rating (% disease control) (Alternaria solani; [14]): 0%; Test J rating (% disease control) [2, 15]: 99%; Test F rating (% disease control) (Septoria nodorum; [16]): 0%; Test H rating (% disease control) [3, 17]: 66%"
COc1cc(F)c(-c2c(C)nn(C)c2Oc2ccc(Cl)cn2)c(F)c1 [compound 47],–,–,–,–,–,–,–,"Test I rating (% disease control), value marked * ([1]; wheat leaf rust, preventive spray, rating marked with asterisk (different test condition, key not given)): 96* %; Test B rating (% disease control), value marked * (Botrytis cinerea; tomato Botrytis, preventive spray, rating marked with asterisk (different test condition, key not given)): 100* %; Test G rating (% disease control), value marked * (Septoria tritici; wheat leaf blotch, preventive spray, rating marked with asterisk (different test condition, key not given)): 99* %; Test C rating (% disease control), value marked * (Alternaria solani; tomato early blight, preventive spray, rating marked with asterisk (different test condition, key not given)): 87* %; Test J rating (% disease control), value marked * ([2]; wheat powdery mildew, preventive spray, rating marked with asterisk (different test condition, key not given)): 99* %; Test F rating (% disease control), value marked * (Septoria nodorum; Septoria glume blotch, preventive spray, rating marked with asterisk (different test condition, key not given)): 0* %; Test H rating (% disease control), value marked * ([3]; wheat leaf rust, curative spray, rating marked with asterisk (different test condition, key not given)): 37* %"
Cc1nn(C)c(Nc2c(F)cc(F)cc2F)c1-c1c(F)cc(C#N)cc1F [compound 133],–,–,–,–,–,–,–,"Test I rating (% disease control) [1, 11]: 100%; Test B rating (% disease control) (Botrytis cinerea; [12]): 100%; Test G rating (% disease control) (Septoria tritici; [13]): 99%; Test C rating (% disease control) (Alternaria solani; [14]): 100%; Test J rating (% disease control) [2, 15]: 94%; Test F rating (% disease control) (Septoria nodorum; [16]): 60%; Test H rating (% disease control) [3, 17]: 0%"
Cc1nn(C)c(Nc2cccc(F)c2F)c1-c1ccc(F)cc1F [compound 214],99,98,100,51,100,0,9,–
COc1ccc(-c2c(C)nn(C)c2Nc2c(F)cccc2F)c(Cl)c1 [compound 161],100,98,100,100,98,0,95,–
